Reference: PubChem BioAssay (NCI)
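1) Cells in 96-well plates. 2) Compound, 48 h, 5 concentrations. 3) Linear interpolation between surrounding doses. 4) Unreached endpoint = highest concentration. GI50 is the concentration that inhibits growth by half. The concentration for full growth arrest is given as TGI.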

Key:
Assay in all cases: NCI anticancer screen, dose series, 48 h
CCRF-CEM leukemia = test system: CCRF-CEM leukemia
BT-549 breast = test system: BT-549 breast
SW-620 colon = test system: SW-620 colon
SK-MEL-2 melanoma = test system: SK-MEL-2 melanoma
MDA-MB-231 breast = test system: MDA-MB-231 breast
HOP-92 NSCLC = test system: HOP-92 NSCLC
HCC-2998 colon = test system: HCC-2998 colon
A549 NSCLC = test system: A549 NSCLC
IGROV1 ovarian = test system: IGROV1 ovarian
NCI/ADR-RES ovarian = test system: NCI/ADR-RES ovarian
CAKI-1 renal = test system: CAKI-1 renal
HL-60(TB) leukemia = test system: HL-60(TB) leukemia
UACC-62 melanoma = test system: UACC-62 melanoma
HS 578T breast = test system: HS 578T breast
OVCAR-8 ovarian = test system: OVCAR-8 ovarian
COLO 205 colon = test system: COLO 205 colon
SK-MEL-5 melanoma = test system: SK-MEL-5 melanoma
HOP-62 NSCLC = test system: HOP-62 NSCLC
HT29 colon = test system: HT29 colon
NCI-H23 lung = test system: NCI-H23 lung
SNB-75 CNS = test system: SNB-75 CNS
NCI-H522 lung = test system: NCI-H522 lung
RXF 393 renal = test system: RXF 393 renal
TK-10 renal = test system: TK-10 renal
OVCAR-4 ovarian = test system: OVCAR-4 ovarian
K-562 leukemia = test system: K-562 leukemia
OVCAR-3 ovarian = test system: OVCAR-3 ovarian
DU-145 prostate = test system: DU-145 prostate
RPMI-8226 leukemia = test system: RPMI-8226 leukemia
UACC-257 melanoma = test system: UACC-257 melanoma
SK-OV-3 ovarian = test system: SK-OV-3 ovarian
MALME-3M melanoma = test system: MALME-3M melanoma
LOX IMVI melanoma = test system: LOX IMVI melanoma
HCT-116 colon = test system: HCT-116 colon
KM12 colon = test system: KM12 colon
MDA-MB-435 = test system: MDA-MB-435
MCF7 breast = test system: MCF7 breast
PC-3 prostate = test system: PC-3 prostate
SN12C renal = test system: SN12C renal
SR leukemia = test system: SR leukemia
NCI-H226 lung = test system: NCI-H226 lung
MOLT-4 leukemia = test system: MOLT-4 leukemia
SNB-19 CNS = test system: SNB-19 CNS
T-47D breast = test system: T-47D breast
SK-MEL-28 melanoma = test system: SK-MEL-28 melanoma
SF-295 CNS = test system: SF-295 CNS
A498 renal = test system: A498 renal
U251 CNS = test system: U251 CNS
SF-268 CNS = test system: SF-268 CNS
NCI-H460 lung = test system: NCI-H460 lung
EKVX NSCLC = test system: EKVX NSCLC
HCT-15 colon = test system: HCT-15 colon
OVCAR-5 ovarian = test system: OVCAR-5 ovarian
ACHN renal = test system: ACHN renal
SF-539 CNS = test system: SF-539 CNS

COc1cccc(C2SC(C)C(=O)N2CCc2cccs2)c1 (stereo not given)
GI50 (CCRF-CEM leukemia): 3.01 µM
TGI (CCRF-CEM leukemia): 22.3 µM
GI50 (BT-549 breast): 2.69 µM
TGI (BT-549 breast): 9.11 µM
GI50 (SW-620 colon): 3.48 µM
TGI (SW-620 colon): 15.7 µM
GI50 (SK-MEL-2 melanoma): 2.77 µM
TGI (SK-MEL-2 melanoma): 11.5 µM
GI50 (MDA-MB-231 breast): 2.72 µM
TGI (MDA-MB-231 breast): 13.9 µM
GI50 (HOP-92 NSCLC): 1.16 µM
TGI (HOP-92 NSCLC): 4.37 µM
GI50 (HCC-2998 colon): 2.93 µM
TGI (HCC-2998 colon): 12.3 µM
GI50 (A549 NSCLC): 3.39 µM
TGI (A549 NSCLC): 12.7 µM
GI50 (IGROV1 ovarian): 2.01 µM
TGI (IGROV1 ovarian): 15.7 µM
GI50 (NCI/ADR-RES ovarian): 2.6 µM
TGI (NCI/ADR-RES ovarian): 12.7 µM
GI50 (CAKI-1 renal): 2.07 µM
TGI (CAKI-1 renal): 10.5 µM
GI50 (HL-60(TB) leukemia): 2.59 µM
TGI (HL-60(TB) leukemia): 7.49 µM
GI50 (UACC-62 melanoma): 1.76 µM
TGI (UACC-62 melanoma): 10.7 µM
GI50 (HS 578T breast): 2.56 µM
TGI (HS 578T breast): 26.8 µM
GI50 (OVCAR-8 ovarian): 3.49 µM
TGI (OVCAR-8 ovarian): 14.3 µM
GI50 (COLO 205 colon): 1.47 µM
TGI (COLO 205 colon): 2.82 µM
GI50 (SK-MEL-5 melanoma): 1.58 µM
TGI (SK-MEL-5 melanoma): 2.96 µM
GI50 (HOP-62 NSCLC): 3.12 µM
TGI (HOP-62 NSCLC): 14.9 µM
GI50 (HT29 colon): 3.24 µM
TGI (HT29 colon): 12 µM
GI50 (NCI-H23 lung): 2.62 µM
TGI (NCI-H23 lung): 12.1 µM
GI50 (SNB-75 CNS): 3.2 µM
TGI (SNB-75 CNS): 15.7 µM
GI50 (NCI-H522 lung): 1.71 µM
TGI (NCI-H522 lung): 5.15 µM
GI50 (RXF 393 renal): 4.26 µM
TGI (RXF 393 renal): 16.4 µM
GI50 (TK-10 renal): 2.79 µM
TGI (TK-10 renal): 11.7 µM
GI50 (OVCAR-4 ovarian): 2.25 µM
TGI (OVCAR-4 ovarian): 11.2 µM
GI50 (K-562 leukemia): 2.81 µM
TGI (K-562 leukemia): > 100 µM
GI50 (OVCAR-3 ovarian): 2.04 µM
TGI (OVCAR-3 ovarian): 7.6 µM
GI50 (DU-145 prostate): 3.95 µM
TGI (DU-145 prostate): 14.9 µM
GI50 (RPMI-8226 leukemia): 1.88 µM
TGI (RPMI-8226 leukemia): 5.39 µM
GI50 (UACC-257 melanoma): 3.17 µM
TGI (UACC-257 melanoma): 10.3 µM
GI50 (SK-OV-3 ovarian): 2.95 µM
TGI (SK-OV-3 ovarian): 13.2 µM
GI50 (MALME-3M melanoma): 2.19 µM
TGI (MALME-3M melanoma): 8.09 µM
GI50 (LOX IMVI melanoma): 2.48 µM
TGI (LOX IMVI melanoma): 11.6 µM
GI50 (HCT-116 colon): 1.89 µM
TGI (HCT-116 colon): 8.36 µM
GI50 (KM12 colon): 2.67 µM
TGI (KM12 colon): 8.99 µM
GI50 (MDA-MB-435): 2.16 µM
TGI (MDA-MB-435): 7.28 µM
GI50 (MCF7 breast): 3.02 µM
TGI (MCF7 breast): 12.7 µM
GI50 (PC-3 prostate): 2.05 µM
TGI (PC-3 prostate): 8.65 µM
GI50 (SN12C renal): 3.15 µM
TGI (SN12C renal): 13.5 µM
GI50 (SR leukemia): 2.5 µM
TGI (SR leukemia): 15.5 µM
GI50 (NCI-H226 lung): 3.15 µM
TGI (NCI-H226 lung): 17.2 µM
GI50 (MOLT-4 leukemia): 2.34 µM
TGI (MOLT-4 leukemia): 10.7 µM
GI50 (SNB-19 CNS): 2.96 µM
TGI (SNB-19 CNS): 13.7 µM
GI50 (T-47D breast): 1.78 µM
TGI (T-47D breast): 11.6 µM
GI50 (SK-MEL-28 melanoma): 3.6 µM
TGI (SK-MEL-28 melanoma): 14 µM
GI50 (SF-295 CNS): 2.68 µM
TGI (SF-295 CNS): 11.2 µM
GI50 (A498 renal): 1.25 µM
TGI (A498 renal): 10.5 µM
GI50 (U251 CNS): 3.1 µM
TGI (U251 CNS): 11.2 µM
GI50 (SF-268 CNS): 2.72 µM
TGI (SF-268 CNS): 13 µM
GI50 (NCI-H460 lung): 2.83 µM
TGI (NCI-H460 lung): 11 µM
GI50 (EKVX NSCLC): 1.49 µM
TGI (EKVX NSCLC): 10.7 µM
GI50 (HCT-15 colon): 2.75 µM
TGI (HCT-15 colon): 12.5 µM
GI50 (OVCAR-5 ovarian): 4.05 µM
TGI (OVCAR-5 ovarian): 20 µM
GI50 (ACHN renal): 3.34 µM
TGI (ACHN renal): 13.8 µM
GI50 (SF-539 CNS): 3.6 µM
TGI (SF-539 CNS): 13.6 µM
